# Test results: PMC5697638, “Identification of a Potent Phosphoinositide 3‐Kinase Pan Inhibitor Displaying a Strategic Carboxylic Acid Group and Development of Its Prodrugs” (Chemmedchem, 2017)
# Assays:
# hPI3Kγ (PIK3CG) = biological target: T1, hPI3Kγ (PIK3CG) (Homo sapiens, UniProt P48736); test: lipid kinase assay (ADP-Glo), PI3Kγ; type: biochemical
# T1 construct: purchased ProQinase, Germany 1163‐0000‐1
# Method: (§1) In vitro selection, lipid kinase assay: To determine the inhibitory activity of the new molecular entities on PI3K enzyme, a lipid kinase assay was performed: recombinant proteins (30 ng), human PI3Kα (PIK3CA/PIK3R1, #1161‐1165‐1 ProQinase–Germany), hPI3Kβ (PIK3CB wt/PIK3R1, #1168‐1165‐1 ProQinase, Germany), hPI3Kγ (PIK3CG, #1163‐0000‐1 ProQinase, Germany), hPI3Kδ (PIK3CD/PIK3R1, #1162–1165‐1 ProQinase, Germany), hPI3K‐C2α (PIK3C2A, #14‐906 Merck Millipore_Merck KGaA, Germany), hPI3K‐C2β (PIK3C2B, #14‐907 Merck Millipore_Merck KGaA, Germany), hPI3K‐c2γ (PIK3C2G, #1207‐0000‐1 ProQinase, Germany), and hVps34 (PIK3C3, #1160‐0000‐1 ProQinase, Germany), were incubated in kinase buffer {12.5 μL; 20 mM Tris‐HCl pH 7.5, 10 mM MgCl2, 10 μM ATP, 0.05 mg mL^−1 BSA, 0.5 mM EDTA, 5 mM HEPES pH 7.5, for PI3Kα,PI3Kβ, PI3Kγ, PI3Kδ, PI3KC‐2α, and PI3KC‐2γ; 15 mM MnCl2, 5 mM EGTA, 100 μM ATP, 50 mM HEPES pH 7.5, 100 mM NaCl, and 0.03 % CHAPS for PI3K‐C2β and VPS34 {BSA=bovine serum albumin; EDTA=ethylenediaminetetraacetic acid; HEPES=4‐(2‐hydroxyethyl)‐1‐piperazineethanesulfonic acid; EGTA=ethylene glycol‐bis(2‐aminoethylether)‐N,N,N′,N′‐tetraacetic acid; CHAPS=3‐[(3‐cholamidopropyl)dimethylammonio]‐1‐propanesulfonate}. In the reaction, the ATP concentration used for different PI3Ks was defined on the basis of the Michaelis–Menten kinetics of each enzyme, provided by the supplier. Reaction was performed in presence of 0.5 mg mL^−1 lipid micelles (1:1 phosphatidylinositol/phosphatidylserine) and in the absence (DMSO alone) or presence of increasing concentrations of each compound (from 0.1 nM to 30 μM). The mixture was kept at room temperature (RT) for 30 min for PI3Kα, PI3Kβ, PI3Kγ, PI3Kδ, PI3KC‐2α, and PI3KC‐2γ and for 1 h for PI3K‐C2β and PI3K‐C3. The amount of ADP produced in the reaction was measured by using the ADP‐Glo Kinase Assay kit from Promega (#V9102) and a luminescence reader (Glomax multi detection system, Promega, model number 9301‐010).
# The residual PI3K lipid kinase activity in the presence of each molecule at different concentrations was related to the control, intended as the recombinant protein in the presence of DMSO alone and was expressed as a percentage. To derive the IC50 value, all data (% of lipid kinase activity) were plotted on a dose–response curve (Graph Pad software), and the IC50 was calculated by using nonlinear regression fit (equation [log agonist] versus response).
# PI3Kδ = biological target: T2, PI3Kδ (Homo sapiens, UniProt O00329); test: Lineweaver–Burk plot, inhibition mode against PI3Kδ; type: biochemical; details: ATP 5-100 μM; 37 at 5, 10, 20 nM
# T2 construct: purchased ProQinase, Germany 1162–1165‐1
# Method: Figure 6 Inhibition mode of 37 against PI3Kδ isoform. Lineweaver–Burk plot, 1/v versus 1/[ATP]. The inhibition assay was performed by using varying concentrations of ATP (5, 10, 25, 50, and 100 μM) and fixed concentrations of PI3Kδ recombinant protein (2.4 μg mL^−1) and lipids (1 mg mL^−1 PI/PS lipid micelles mixture) in the presence or absence of different concentrations of 37 (5, 10, and 20 nM).
# Lineweaver–Burk plot: The linear phase of the kinetic reaction was defined with 2.4 μg mL^−1 of PI3Kδ in a 20 min reaction time. In the presence of increasing concentrations of 37 (5, 10 and 20 nM), the PI3K lipid kinase activity (for the assay method see “In vitro selection, lipid kinase assay” in the Experimental Section) was assayed at various concentrations of ATP (5, 10, 25, 50, and 100 μM) and in the presence of 0.5 mg mL^−1 lipid micelles (1:1 phosphatidylinositol/phosphatidylserine). A Lineweaver–Burk plot was obtained by plotting 1/v, for which v represents pmol min^−1 of ADP produced in the reaction measured with the ADP‐Glo Kinase Assay kit from Promega (#V9102) versus 1/[ATP] (the inverse of the ATP concentration). The minus‐enzyme control was obtained by incubating phosphatidylinositol in the absence of PI3Kδ.
# hVps34 (PIK3C3) = biological target: T3, hVps34 (PIK3C3) (Homo sapiens, UniProt Q8NEB9); test: lipid kinase assay (ADP-Glo), PI3K-C3; type: biochemical; details: Table 2; mean of at least three determinations, 95 % confidence intervals; read-out: IC50 PI3Kc3
# T3 construct: purchased ProQinase, Germany 1160‐0000‐1
# Method: as §1, with “Reaction was performed in presence of 0.5 mg mL^−1 lipid micelles (1:1 phosphatidylinositol/phosphatidylserine) and in the absence (DMSO alone) or presence of increasing concentrations of each compound (from 0.1 nM to 30 μM). The mixture was kept at room temperature (RT) for 30 min for PI3Kα, PI3Kβ, PI3Kγ, PI3Kδ, PI3KC‐2α, and PI3KC‐2γ and for 1 h for PI3K‐C2β and PI3K‐C3. The amount of ADP produced in the reaction was measured by using the ADP‐Glo Kinase Assay kit from Promega (#V9102) and a luminescence reader (Glomax multi detection system, Promega, model number 9301‐010).” left out
# hPI3K‐C2β (PIK3C2B) = hPI3K‐C2β (PIK3C2B) (Homo sapiens, UniProt O00750); test: lipid kinase assay (ADP-Glo), PI3K-C2β; type: biochemical; details: Table 2; 100 μM ATP; read-out: IC50 PI3Kc2β
# Method: as §1, with “Reaction was performed in presence of 0.5 mg mL^−1 lipid micelles (1:1 phosphatidylinositol/phosphatidylserine) and in the absence (DMSO alone) or presence of increasing concentrations of each compound (from 0.1 nM to 30 μM). The mixture was kept at room temperature (RT) for 30 min for PI3Kα, PI3Kβ, PI3Kγ, PI3Kδ, PI3KC‐2α, and PI3KC‐2γ and for 1 h for PI3K‐C2β and PI3K‐C3. The amount of ADP produced in the reaction was measured by using the ADP‐Glo Kinase Assay kit from Promega (#V9102) and a luminescence reader (Glomax multi detection system, Promega, model number 9301‐010).” left out
# PC3 cells = test: cell-cycle analysis, propidium iodide flow cytometry; type: cell-based; details: 10 μM, 48 h
# Method: Cell‐cycle analysis: For DNA content determination, PC3 cells were seeded at 4×10^5 cells per 6 cm dish in triplicate in the presence of DMEM high glucose GlutaMAXTM (Gibco), 10 % fetal bovine serum (Invitrogen) supplemented with 5000 U mL^−1 penicillin–streptomycin (Gibco). The day after seeding, cells were treated for 48 h with 10 μM 64 or DMSO. Subsequently, PC3 cells were detached with 0.1 % trypsin–EDTA (Gibco), fixed in 70 % ethanol overnight at −20 °C, and stained for 40 min at […] with PI solution, containing 0.05 % Triton X‐100, 0.1 mg mL^−1 RNase, and 25 μg mL^−1 propidium iodide. Sample were analyzed for the DNA content by using a FACS‐Calibur flow cytometer (Becton Dickinson Immunocytometry Systems, San Jose, USA). The percentages of cells in the G0/G1, S, and G2 phases were calculated.
# T1 sequence (P48736 whole entry): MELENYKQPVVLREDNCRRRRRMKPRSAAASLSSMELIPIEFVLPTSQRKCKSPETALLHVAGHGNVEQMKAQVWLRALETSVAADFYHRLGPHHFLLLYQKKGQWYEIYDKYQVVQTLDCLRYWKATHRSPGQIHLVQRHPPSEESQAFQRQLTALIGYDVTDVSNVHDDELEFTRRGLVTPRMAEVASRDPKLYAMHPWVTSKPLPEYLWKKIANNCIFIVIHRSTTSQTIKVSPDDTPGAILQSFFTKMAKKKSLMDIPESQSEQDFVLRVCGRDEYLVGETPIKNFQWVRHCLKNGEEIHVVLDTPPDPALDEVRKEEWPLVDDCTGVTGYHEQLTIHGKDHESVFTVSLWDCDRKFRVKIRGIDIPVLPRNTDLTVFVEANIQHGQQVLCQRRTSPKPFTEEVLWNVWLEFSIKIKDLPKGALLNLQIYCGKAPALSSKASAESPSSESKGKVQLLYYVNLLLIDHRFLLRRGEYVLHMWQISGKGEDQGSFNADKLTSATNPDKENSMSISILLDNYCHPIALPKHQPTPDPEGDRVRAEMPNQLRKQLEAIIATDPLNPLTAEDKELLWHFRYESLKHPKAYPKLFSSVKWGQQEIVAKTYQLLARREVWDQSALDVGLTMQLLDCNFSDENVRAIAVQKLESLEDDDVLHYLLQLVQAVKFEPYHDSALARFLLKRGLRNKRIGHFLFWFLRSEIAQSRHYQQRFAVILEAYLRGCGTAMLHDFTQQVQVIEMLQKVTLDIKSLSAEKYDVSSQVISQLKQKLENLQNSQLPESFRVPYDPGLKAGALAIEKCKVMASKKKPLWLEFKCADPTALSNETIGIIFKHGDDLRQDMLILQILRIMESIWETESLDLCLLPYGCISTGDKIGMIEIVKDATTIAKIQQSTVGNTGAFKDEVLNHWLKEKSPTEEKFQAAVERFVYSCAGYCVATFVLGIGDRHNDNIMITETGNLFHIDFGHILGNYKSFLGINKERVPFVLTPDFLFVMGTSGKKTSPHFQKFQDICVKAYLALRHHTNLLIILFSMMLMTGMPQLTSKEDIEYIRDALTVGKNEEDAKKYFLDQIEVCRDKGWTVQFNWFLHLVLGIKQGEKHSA
# T2 sequence (O00329 whole entry): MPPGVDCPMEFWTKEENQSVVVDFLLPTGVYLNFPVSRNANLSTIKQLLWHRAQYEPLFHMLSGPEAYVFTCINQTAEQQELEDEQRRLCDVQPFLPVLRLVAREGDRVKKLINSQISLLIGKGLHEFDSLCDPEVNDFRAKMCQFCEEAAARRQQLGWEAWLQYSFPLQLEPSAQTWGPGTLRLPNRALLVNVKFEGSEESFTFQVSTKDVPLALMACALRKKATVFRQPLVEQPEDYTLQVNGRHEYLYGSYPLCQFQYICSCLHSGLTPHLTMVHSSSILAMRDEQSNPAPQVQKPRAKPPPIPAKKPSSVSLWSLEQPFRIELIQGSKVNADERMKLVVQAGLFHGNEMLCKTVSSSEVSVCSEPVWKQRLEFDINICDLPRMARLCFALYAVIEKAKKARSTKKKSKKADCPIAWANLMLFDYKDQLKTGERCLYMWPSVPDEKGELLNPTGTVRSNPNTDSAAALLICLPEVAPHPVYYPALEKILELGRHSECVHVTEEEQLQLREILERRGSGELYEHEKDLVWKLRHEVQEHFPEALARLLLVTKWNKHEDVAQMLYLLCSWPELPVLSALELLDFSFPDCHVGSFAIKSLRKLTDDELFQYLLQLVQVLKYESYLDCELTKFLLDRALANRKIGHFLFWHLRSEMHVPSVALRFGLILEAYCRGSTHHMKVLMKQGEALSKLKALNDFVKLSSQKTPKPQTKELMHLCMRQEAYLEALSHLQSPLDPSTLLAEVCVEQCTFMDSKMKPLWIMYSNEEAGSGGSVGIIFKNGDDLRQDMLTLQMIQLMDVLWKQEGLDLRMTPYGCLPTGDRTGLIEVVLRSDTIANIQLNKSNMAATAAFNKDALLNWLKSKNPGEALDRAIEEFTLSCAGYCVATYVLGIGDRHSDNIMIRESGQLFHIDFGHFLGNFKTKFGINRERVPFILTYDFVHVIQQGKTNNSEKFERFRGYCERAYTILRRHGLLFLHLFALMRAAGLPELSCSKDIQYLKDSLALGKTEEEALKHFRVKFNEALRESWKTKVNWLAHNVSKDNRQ
# T2 sequence (P27986 whole entry partner): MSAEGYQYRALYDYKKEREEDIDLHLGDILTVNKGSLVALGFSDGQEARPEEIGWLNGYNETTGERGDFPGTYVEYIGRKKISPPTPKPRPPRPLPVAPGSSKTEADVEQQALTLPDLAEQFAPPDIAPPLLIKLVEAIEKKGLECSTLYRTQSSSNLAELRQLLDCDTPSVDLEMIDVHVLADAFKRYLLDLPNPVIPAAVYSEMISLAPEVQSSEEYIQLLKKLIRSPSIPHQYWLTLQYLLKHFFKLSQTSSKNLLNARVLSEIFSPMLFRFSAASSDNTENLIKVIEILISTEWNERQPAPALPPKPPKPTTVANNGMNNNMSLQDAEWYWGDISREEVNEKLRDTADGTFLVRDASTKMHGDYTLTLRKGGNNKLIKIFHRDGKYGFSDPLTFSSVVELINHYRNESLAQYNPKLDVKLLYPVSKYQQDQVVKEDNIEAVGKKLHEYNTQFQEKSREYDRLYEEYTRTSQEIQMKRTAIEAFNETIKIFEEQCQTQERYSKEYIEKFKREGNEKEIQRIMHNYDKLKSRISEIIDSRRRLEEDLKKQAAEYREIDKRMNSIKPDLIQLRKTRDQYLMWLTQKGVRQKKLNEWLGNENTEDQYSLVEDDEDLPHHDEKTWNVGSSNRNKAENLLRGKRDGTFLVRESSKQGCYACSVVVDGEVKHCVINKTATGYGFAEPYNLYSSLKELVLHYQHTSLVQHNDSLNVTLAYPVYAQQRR
# hPI3K‐C2β (PIK3C2B), sequence (O00750 whole entry): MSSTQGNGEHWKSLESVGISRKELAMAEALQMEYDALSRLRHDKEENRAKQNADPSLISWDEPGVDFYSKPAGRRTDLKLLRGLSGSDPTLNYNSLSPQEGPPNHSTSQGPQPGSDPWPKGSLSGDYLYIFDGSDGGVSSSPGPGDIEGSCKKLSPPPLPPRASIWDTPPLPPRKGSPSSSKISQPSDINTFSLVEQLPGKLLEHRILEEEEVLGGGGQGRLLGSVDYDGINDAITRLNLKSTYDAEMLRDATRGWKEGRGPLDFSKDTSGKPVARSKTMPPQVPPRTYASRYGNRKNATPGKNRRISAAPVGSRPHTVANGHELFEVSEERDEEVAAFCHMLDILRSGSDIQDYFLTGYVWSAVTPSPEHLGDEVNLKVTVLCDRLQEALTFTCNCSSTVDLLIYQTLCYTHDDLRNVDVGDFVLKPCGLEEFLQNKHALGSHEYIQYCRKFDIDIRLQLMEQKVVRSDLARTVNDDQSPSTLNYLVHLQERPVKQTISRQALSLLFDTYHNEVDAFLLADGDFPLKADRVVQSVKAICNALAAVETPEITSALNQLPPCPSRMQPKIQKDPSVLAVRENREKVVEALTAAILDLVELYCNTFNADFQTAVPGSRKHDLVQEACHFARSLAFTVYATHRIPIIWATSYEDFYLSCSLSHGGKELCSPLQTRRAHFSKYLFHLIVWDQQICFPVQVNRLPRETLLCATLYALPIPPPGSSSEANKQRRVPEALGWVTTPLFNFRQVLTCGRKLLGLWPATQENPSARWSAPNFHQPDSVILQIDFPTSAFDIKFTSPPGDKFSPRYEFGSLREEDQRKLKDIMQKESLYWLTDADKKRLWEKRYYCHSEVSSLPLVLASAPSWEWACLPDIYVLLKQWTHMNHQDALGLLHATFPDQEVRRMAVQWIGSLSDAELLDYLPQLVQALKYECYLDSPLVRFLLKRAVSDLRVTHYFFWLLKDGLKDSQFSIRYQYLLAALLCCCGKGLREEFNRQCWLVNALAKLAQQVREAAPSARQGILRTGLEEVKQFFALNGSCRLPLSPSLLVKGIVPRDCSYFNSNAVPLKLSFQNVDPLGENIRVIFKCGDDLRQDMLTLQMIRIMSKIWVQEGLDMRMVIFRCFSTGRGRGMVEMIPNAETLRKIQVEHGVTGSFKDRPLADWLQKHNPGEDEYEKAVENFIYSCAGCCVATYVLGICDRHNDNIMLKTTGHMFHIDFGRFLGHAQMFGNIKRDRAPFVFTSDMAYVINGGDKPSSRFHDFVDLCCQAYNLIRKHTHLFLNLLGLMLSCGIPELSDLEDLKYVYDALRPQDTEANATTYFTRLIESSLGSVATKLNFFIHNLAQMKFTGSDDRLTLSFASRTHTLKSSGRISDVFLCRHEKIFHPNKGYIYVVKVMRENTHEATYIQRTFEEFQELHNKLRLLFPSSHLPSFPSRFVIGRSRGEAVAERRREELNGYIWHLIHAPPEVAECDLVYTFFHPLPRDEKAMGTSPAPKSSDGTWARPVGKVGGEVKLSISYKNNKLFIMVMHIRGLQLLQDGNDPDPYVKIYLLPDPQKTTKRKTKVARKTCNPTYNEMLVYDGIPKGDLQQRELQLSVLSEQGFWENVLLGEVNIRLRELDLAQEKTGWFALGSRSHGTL
smiles,measurement,setting,value
"O=C(O)c1cccc(Cn2cc(-c3cccc4c(=O)cc(N5CCOCC5)[nH]c34)nn2)c1 [Compound 37, 3‐{[4‐(2‐Morpholino‐4‐oxo‐1,4‐dihydroquinolin‐8‐yl)‐1H‐1,2,3‐triazol‐1‐yl]methyl}benzoic acid]",IC50,"hPI3Kγ (PIK3CG); Table 2, mean of at least three determinations, 95 % confidence intervals",186 ± 43 nM
same,inhibition at 1 µM,"hPI3Kγ (PIK3CG); determined at 1 μM, at least triplicate, read-out: Inhibitory activity, PI3K isoform γ",> 50%
same,inhibition mode against PI3Kδ,PI3Kδ,ATP‐competitive inhibitor
same,IC50,hVps34 (PIK3C3),590 ± 200 nM
same,IC50,hPI3K‐C2β (PIK3C2B),> 20000 nM
"COC(=O)c1cccc(Cn2cc(-c3cccc4c(=O)cc(N5CCOCC5)[nH]c34)nn2)c1 [Compound 64, Methyl 3‐{[4‐(2‐morpholino‐4‐oxo‐1,4‐dihydroquinolin‐8‐yl)‐1H‐1,2,3‐triazol‐1‐yl]methyl}benzoate]",effect on cell cycle,PC3 cells,induce cell‐cycle arrest
